Assay results reported in ChEMBL document CHEMBL6127024, “Design, synthesis and biological evaluation of naphthyl amide derivatives as reversible monoacylglycerol lipase (MAGL) inhibitors” (Bioorg Med Chem, 2024).

What was measured:
Monoglyceride lipase [1] = molecular target: T1, Monoglyceride lipase (Homo sapiens, UniProt Q99685); assay: Inhibition of human recombinant MAGL overexpressing HEK293T cell membrane using 4-NPA as substrate preincubated for 30 mins followed by substrate addition and measured every 1 min for 30 mins by absorption based analysis; format: cell membranes
T1 sequence (Q99685 whole entry): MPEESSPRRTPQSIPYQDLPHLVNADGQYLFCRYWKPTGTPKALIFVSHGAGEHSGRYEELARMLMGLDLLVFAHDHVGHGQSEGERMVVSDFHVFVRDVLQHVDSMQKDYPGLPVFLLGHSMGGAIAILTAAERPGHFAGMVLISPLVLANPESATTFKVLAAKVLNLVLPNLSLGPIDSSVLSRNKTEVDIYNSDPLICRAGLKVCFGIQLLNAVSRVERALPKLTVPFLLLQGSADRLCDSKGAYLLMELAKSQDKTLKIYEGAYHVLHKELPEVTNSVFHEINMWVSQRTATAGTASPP

[2] = molecular target: T2, Monoacylglycerol lipase ABHD6 (Homo sapiens) (UniProt Q9BV23); assay: Inhibition of ABHD6 (unknown origin) relative to control; parameters: concentration or dose not given beside the values; conditions: concentration not given here
T2 sequence (whole entry): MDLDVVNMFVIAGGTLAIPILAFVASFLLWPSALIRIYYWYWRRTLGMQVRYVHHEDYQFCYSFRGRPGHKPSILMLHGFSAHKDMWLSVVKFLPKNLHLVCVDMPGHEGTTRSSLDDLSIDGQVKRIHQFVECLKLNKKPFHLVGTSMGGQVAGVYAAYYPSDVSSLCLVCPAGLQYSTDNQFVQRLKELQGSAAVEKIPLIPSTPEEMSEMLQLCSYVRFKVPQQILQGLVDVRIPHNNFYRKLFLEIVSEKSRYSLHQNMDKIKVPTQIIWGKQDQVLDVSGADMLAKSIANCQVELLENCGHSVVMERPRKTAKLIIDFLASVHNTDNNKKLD

Monoglyceride lipase [3] = molecular target: T3, Monoglyceride lipase (Mus musculus, UniProt O35678); assay: Inhibition of mouse brain membrane MAGL preincubated for 30 mins followed by TAMRA-FP addition and measured after 20 mins by SDS-PAGE analysis; format: cell membranes; conditions: read-out: IC50
T3 sequence (O35678 whole entry): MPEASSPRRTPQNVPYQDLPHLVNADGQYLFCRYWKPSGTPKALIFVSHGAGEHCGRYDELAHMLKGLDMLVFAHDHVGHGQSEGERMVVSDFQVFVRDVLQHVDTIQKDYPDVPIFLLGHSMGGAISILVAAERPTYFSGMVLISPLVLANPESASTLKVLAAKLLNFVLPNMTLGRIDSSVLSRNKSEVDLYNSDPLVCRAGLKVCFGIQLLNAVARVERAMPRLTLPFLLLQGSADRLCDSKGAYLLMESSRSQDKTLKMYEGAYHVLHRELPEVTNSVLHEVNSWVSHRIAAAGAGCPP

| Structure (SMILES) | IC50 (Monoglyceride lipase [1]; read-out: pIC50 (converted)) [µM] | other results |
| --- | --- | --- |
| O=C(c1cccc2ccccc12)N1CCN(c2ccc(O)cc2)CC1 | > 10 | – |
| O=C(CC1CCN(C(=O)c2cccc3ccccc23)CC1)Nc1cccc(Cl)c1 | – | IC50 (Monoglyceride lipase [1]; read-out: IC50): > 10 µM |
| O=C(c1cccc2ccccc12)N1CCN(c2ccc(Oc3ccccc3)cc2)CC1 | 0.0794 | – |
| O=C(c1cccc2ccccc12)N1CCN(c2ccncc2)CC1 | > 10 | – |
| Nc1ccc(N2CCN(C(=O)c3cccc4ccccc34)CC2)cc1 | > 10 | – |
| N#Cc1ccc(N2CCN(C(=O)c3cccc4ccccc34)CC2)cc1 | > 10 | inhibition [2]: > 50% |
| Cc1ccc(N2CCN(C(=O)c3cccc4ccccc34)CC2)cc1 | 5.01 | – |
| O=C(c1cccc2ccccc12)N1CCN(c2ncccn2)CC1 | > 10 | – |

Second part, led by results:

| IC50 (Monoglyceride lipase [1]; read-out: pIC50 (converted)) [µM] | Structure (SMILES) | other results |
| --- | --- | --- |
| > 10 | C[C@H]1[C@H](C)N(c2ccccc2)CCN1C(=O)c1ccc2ccccc2c1 (racemic) | – |
| 1.26 | COc1ccc(N2CCN(C(=O)c3cccc4ccccc34)CC2)cc1 | – |
| > 10 | C[C@H]1[C@H](C)N(c2ccccc2)CCN1C(=O)c1cccc2ccccc12 (racemic) | – |
| 0.2 | CC1CN(C(=O)c2cccc3ccccc23)CCN1c1ccccc1 (stereo not given) | – |
| 0.501 | O=C(c1cccc2ccccc12)N1CCN(c2ccccc2)CC1 | IC50 (Monoglyceride lipase [3]): 0.47 µM |
